Reference: patent publication US20160067208A1, “ADHESION PREVENTING AGENT” (FARNEX INCORPORATED, priority 2013, published 2016)

Experiments:
Format in all cases: physicochemical
[1] = Preparability and temperature stability of comparative formulations; details: 0.65 cs dimethicone (GMO: 1.00 g in 2.33 g)
Experimental: 2.33 g of 0.65 cs dimethicone (Dow Corning Q7-9180 Silocon Fluid 0.65 CST) was added to 1.00 g of GMO (Rikemal XO-100L, Riken Vitamin Co., Ltd.), followed by stirring to prepare a solution.
Additionally, an o/w dispersion of GMO having the same composition as test sample 18 as described above was prepared, and stored at a refrigerated temperature (7° C.). […] Thus, it is shown that the o/w dispersion of GMO has low temperature stability.
In accordance with Example 14 described in JP Patent Publication No. 2008-528463A, GDO (4.30 g), SPC (Lecinol S-10E, 2.90 g), P80 (1.80 g), and ethanol (1.00 g) were mixed to prepare a liquid crystal precursor composition (GDO/SPC/P80/EtOH=43:29:18:10).
6 mL of distilled water was added to 1.388 g of the liquid crystal precursor composition, followed by stirring for 1 hour to prepare test sample 6 (GDO/SPC/P80/EtOH/water=[…]:81.2).
Thus, it was impossible to prepare a lipid/dimethicone preparation, unlike test samples 13, 14, 21 and 23. […] It was considered that this was due to high viscosity of the sample.

[2] = SAXS analysis of compound/water system (liquid crystal formation); details: compound/water system gel, 50% by mass in water-excess condition, room temperature (25° C.)
Description: Whether or not a liquid crystal structure has a cubic lattice may be determined by a small-angle X-ray scattering (SAXS) method, for the purpose of confirming liquid crystal formation. First, an amphipathic compound/water system sample with a predetermined concentration can be filled into an X-ray capillary tube made of quartz, for example, and the capillary tube is sealed with an oxy-fuel burner, and subjected to SAXS assay.
Mono-O-(5,9,13-trimethyltetradeca-4,8,12-trienoyl)glycerol synthesized in Example 1 and pure water were introduced into a mixing device at the concentration of 50% by mass of mono-O-(5,9,13-trimethyltetradeca-4,8,12-trienoyl)glycerol (in water-excess condition), and they were mixed at room temperature (25° C.) and left for 24 hours to obtain a homogeneous mixture. Then the separated water was removed. Thus, a sample of mono-O-(5,9,13-trimethyltetradeca-4,8,12-trienoyl)glycerol/water system was obtained as a white turbid to colorless transparent gel composition in appearance (it was referred to below as the gel sample).
Subsequently, the gel sample was analyzed by small-angle x-ray scattering (SAXS). The NANO-Viewer nano-scale X-ray structure analysis equipment (Rigaku) was used for SAXS analysis, which was performed by X-ray irradiation at room temperature (25° C.), 40 kV, 50 mA, wavelength λ=0.1542 nm (Cu-Kα).
Each of the compounds synthesized in Example 32, 33, 43, 45, 49, and 50 and water were homogeneously mixed in accordance with the same procedure as in Example 9 to obtain a sample of each compound/water system being a gel in appearance. SAXS analysis of these gel samples was performed in the same manner as in Example 9. […]

[3] = Shear viscosity of liquid crystal gels; details: gel prepared by addition of water, 25° C.
Experimental: (§1) The viscosity was measured for the gels prepared by addition of water to the compounds synthesized in Examples 1, 4, and 5. Specifically, for the gel samples obtained by mixing homogeneously according to the same procedure as in Example 9, the shear viscosity was measured at a temperature of 25° C., using a viscosity and viscoelasticity measuring apparatus (Gemini II, Malvern Instruments Ltd.; cone plate φ25, cone angle 1°).
as §1, with “45” for “1, 4,”, “50, and C17 glycerin ester synthesized in Example 13.” for “5.”

[4] = Viscosity of the compound itself (Gemini II, Malvern); details: 25° C., at shear velocity of 92 1/s
Experimental: In addition, the amphipathic compound to be used for the adhesion preventing agent of the present invention has low viscosity in itself. Specifically, the amphipathic compound to be used for the adhesion preventing agent of the present invention has a viscosity of preferably 15.0 Pa·s or less, more preferably 11.0 Pa·s or less, and further preferably 6.0 Pa·s or less as measured at 25° C. in itself. The viscosity can be measured using, for example, a viscosity and viscoelasticity measuring apparatus (Gemini II, Malvern Instruments Ltd.) at 25° C.
The viscosity of each of the compounds described in the Examples 1-7 was measured using a viscosity/viscoelasticity measuring instrument (Gemini II, Malvern) at the temperature of 25° C.

Compound | state / solubility in dimethicone [1] | liquid crystal structure (SAXS peak value ratio) [2] | Viscosity ([3]; shear velocity 10 1/s) [Pas · sec] | Viscosity ([3]; shear velocity 105 1/s) [Pas · sec] | Viscosity [4] [Pa·s]
CCCCCCCC/C=C\CCCCCCCC(=O)OCC(O)CO (centres unmarked) [GMO, Glyceryl Monooleate] | crystals were precipitated |  |  |  | 
CC(C)=CCC/C(C)=C/CC/C(C)=C/CCC(C)=CCCCOCC(CO)(CO)CO [Example 50, mono-O-(5,9,13,17-tetramethyloctadeca-4,8,12,16-tetraenyl)pentaerythritol] |  | reverse hexagonal liquid crystals | 81 | 14 | 0.78
